Consider nine molecules from US5919796A, “Hydroximic acid derivatives, pharmaceutical compositions containing them, and processes for preparing the same” (BIOREX Kutato es Fejleszto Rt., priority 1994, dated 1999).

Counter-ions that a name gives are not always drawn.

Assay [1] relates to thoracal aorta isolated from rabbit. Kind of assay: Vasorelaxant effect in vitro on isolated thoracal aorta. As to conditions: Oryctolagus cuniculus. From the text: The vasorelaxant effect of the compounds was investigated in vitro on the thoracal aorta isolated from rabbit [Am. J. Physiol. 257, 1327-1333 (1989)].
The test system of another assay is sciatic and tibial nerve. Kind of assay: Motor and sensory impulse conduction rate of nerves in STZ-induced diabetic rats (diabetic angiopathy complications). Format: in vivo, male Cr:Wistar rats. As to conditions: for MCR correction (%): motor conduction rate; for SCR correction (%): sensory conduction rate. Here is the method:
Furthermore, the effect of the compounds of the invention in the treatment of complications associated with the diabetic angiopathy was studied. The in vivo action was measured on rats, by the change of rate of the impulse conduction in an STZ-induced diabetic state as follows.
The electrophysiological measurements were carried out on anaesthetized male Cr:Wistar rats at the end of a one-month period of treatment with 20 mg/kg administered orally (p.o.). The sciatic or tibial nerve, respectively, was excited by needle electrodes stitched near the nerve on the lower extremity and the electromyographic (EMG) responses of the plantar muscle were registered. Five EMG-s each were averaged and the results were stored in a computer. The latency periods of the motor and sensory components were measured. The rates of impulse conduction were calculated from the ratio of the distance between two sites of excitation to the differences of latency.

Assay [2] relates to Reperfusion-induced arrhythmia. The assay is described as follows: Reperfusion-induced arrhythmia (ventricular tachycardia and fibrillation, survival) in anaesthetized rats. Format: in vivo, rat. As to conditions: 1 mg/kg i.v., 5 minutes before compressing the left-sided descending coronary artery; first 3 minutes of reperfusion. Here is the method: The Reperfusion-induced arrhythmia [ventricular tachycardia (VI) and ventricular fibrillation (VF)] was studied on anaesthetized rats. Myocardial ischemia was elicited by compressing the left-sided descending coronary artery for 5 minutes and after the ceasing thereof, by a 10-minute reperfusion of the heart. ECG was continuously monitored, and the change of the mean duration of VT and VF under effect of the test compounds, as well as the survival, were measured in the first 3 minutes of reperfusion. The test compounds were administered in an intravenous (i.v.) dose of 1 mg/kg by 5 minutes before compressing the left-sided descending coronary artery.

The mark [3] stands for this setting: 20 mg/kg p.o., one-month treatment.

As for `ClC(=NOCCCN1CCOCC1)c1cccnc1` [Example 5, O-(3-morpholinopropyl)-3-pyridinehydroximoyl chloride dihydrochloride], in assay [1], the EC50 is 24 µM. In the case of `N=C(N)NN` [Reference drug, aminoguanidine, reference compound], in the assay on sciatic and tibial nerve (50 mg/kg of aminoguanidine), the “MCR correction (%)” value was 40% and the “SCR correction (%)” value amounted to 45%. Molecule `CN1CCN(CCCON=C(Cl)c2cccnc2)CC1` [Example 9, N-[3-(4-methylpiperazin-1-yl)-1-propoxy]-3-pyridinecarboximidoyl chloride trihydrochloride] had an EC50 in assay [1] of 76 µM. In assay [1], `Cl.O=[N+]([O-])c1cccc(C(Cl)=NOCCCN2CCCCC2)c1` [Example 7, O-(3-piperidinopropyl)-3-nitro-benzhydroximoyl chloride hydrochloride] displayed an EC50 of 6 µM. The “survival of experimental animals” value in assay [2] turned out to be 100%. In addition, in the assay on sciatic and tibial nerve (setting [3]), the “MCR correction (%)” value was determined as 48% and the “SCR correction (%)” value was found to be 64%.

Molecule `ClC(=NOCCN1CCCCC1)c1cccnc1` [Example 6, O-(2-piperidinoethyl)-3-pyridinehydroximoyl chloride hydrochloride] had a half-maximal effective concentration (EC50) in assay [1] of 13 µM. In assay [1], `CC(C)COCC(CN(Cc1ccccc1)c1ccccc1)N1CCCC1` (stereo not shown) [Ref, Bepridil, reference compound] returned a concentration giving a half-maximal response (EC50) of 83 µM. In turn, `ClC(=NOCCCN1CCCCC1)c1cccnc1` [Example 2, N-(3-piperidinopropoxy)-3-pyridinecarboximodyl chloride dihydrochloride] yielded a concentration giving a half-maximal response (EC50) in assay [1] of 27 µM. Moreover, the “survival of experimental animals” value in assay [2] is recorded as 100%. For the same molecule, in the assay with sciatic and tibial nerve (setting [3]), the “MCR correction (%)” value worked out at 100% and the “SCR correction (%)” value worked out at 100%. Molecule `CCN(CC)CCCON=C(Cl)c1cccnc1` [Example 4, O-(3-diethylaminopropyl)-3-pyridinehydroximoyl chloride hydrochloride] displayed a concentration giving a half-maximal response (EC50) in assay [1] of 82 µM. With `FC(F)(F)c1cccc(C(Cl)=NOCCCN2CCCCC2)c1` [Example 8, N-[3-(1-piperidinyl)propoxy]-3'-(trifluoromethyl)benzimidoylchloride hydrochloride], the midpoint of the response in assay [1], the EC50, lay at 15 µM.

The term EC50 denotes the concentration needed to bring the measured effect to its halfway point. Lower therefore signals an effect from little substance.
